Patent publication EP4725941A1, “ARYLAMIDE DERIVATIVE HAVING ANTITUMOR ACTIVITY” (priority 2020, dated 2021)

Assays:
MEK1 = biological target: T1, MEK1 (Homo sapiens, UniProt Q02750); experiment: MEK1-inhibiting activity, fluorescent polarization method (CRAF/MEK1/ERK2 cascade, IMAP); format: biochemical; details: Table 3; read-out: MEK1 IC50
T1 construct: purchased Thermo Fisher Scientific Inc. (MEK1, CRAF); Carna Biosciences, Inc. (ERK2)
Experimental: The MEK1-inhibiting activity of the compounds listed in Table 3 below were evaluated by the fluorescent polarization method as described below.

BRAF = biological target: T2, BRAF (Homo sapiens, UniProt P15056); experiment: BRAF-inhibiting activity, time-resolved fluorescence-fluorescence resonance energy transfer assay; format: biochemical; details: read-out: BRAF IC50; Table 3
T2 construct: purchased Eurofins Genomics KK; (BRAF); Thermo Fisher Scientific Inc. (MEK1)
Experimental: The BRAF-inhibiting activity of the compounds listed in Table 3 below was evaluated by the time-resolved fluorescence-fluorescence resonance energy transfer assay as described below.

A549 = experiment: Cell proliferation-inhibiting activity (ATP in viable cells, CellTiter-Glo), A549; format: cell-based, human; details: A549, 96 h; human lung cancer cells, 4 days; read-out: A549 IC50
Calu-6 = experiment: Cell proliferation-inhibiting activity (ATP in viable cells, CellTiter-Glo), Calu-6; format: cell-based, human; details: Calu-6, 96 h; human lung cancer cells, 4 days; read-out: Calu-6 IC50
NCI-H2122 = experiment: Cell proliferation-inhibiting activity (ATP in viable cells, CellTiter-Glo), NCI-H2122; format: cell-based, human; details: NCI-H2122, 96 h; human lung cancer cells, 4 days; read-out: NCI-H2122 IC50
[1] = Human liver microsome stability; format: in vitro ADME; details: human liver microsomes, pH 7.4

T1 sequence (Q02750 whole entry): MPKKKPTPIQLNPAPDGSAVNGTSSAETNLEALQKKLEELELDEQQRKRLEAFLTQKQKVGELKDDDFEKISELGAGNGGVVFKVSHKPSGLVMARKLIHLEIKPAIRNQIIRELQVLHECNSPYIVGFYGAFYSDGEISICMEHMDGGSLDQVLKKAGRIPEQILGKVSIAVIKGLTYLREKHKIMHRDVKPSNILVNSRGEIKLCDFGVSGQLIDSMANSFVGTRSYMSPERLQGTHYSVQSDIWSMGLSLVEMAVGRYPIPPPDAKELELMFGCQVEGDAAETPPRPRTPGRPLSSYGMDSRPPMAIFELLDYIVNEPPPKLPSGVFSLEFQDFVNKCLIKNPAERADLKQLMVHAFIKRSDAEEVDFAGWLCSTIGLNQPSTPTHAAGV
T2 sequence (P15056 417-766 limits assumed): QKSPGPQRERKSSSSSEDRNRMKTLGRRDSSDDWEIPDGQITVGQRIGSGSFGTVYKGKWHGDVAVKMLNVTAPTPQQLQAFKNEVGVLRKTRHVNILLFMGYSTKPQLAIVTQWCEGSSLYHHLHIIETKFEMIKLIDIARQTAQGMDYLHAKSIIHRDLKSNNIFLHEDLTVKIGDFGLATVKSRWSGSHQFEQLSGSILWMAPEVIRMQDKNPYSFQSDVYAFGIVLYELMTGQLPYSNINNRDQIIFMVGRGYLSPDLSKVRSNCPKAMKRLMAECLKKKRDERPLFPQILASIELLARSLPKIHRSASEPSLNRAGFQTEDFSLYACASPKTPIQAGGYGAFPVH

CNS(=O)(=O)Nc1nccc(Cc2cc(C(=O)NOCCOC)c(Nc3ccc(I)cc3F)c(F)c2F)c1F [Compound B-2, 3,4-Difluoro-2-(2-fluoro-4-iodoanilino)-5-[[3-fluoro-2-(methylsulfamoylamino)pyridin-4-yl]methyl]-N-(2-methoxyethoxy)benzamide]
IC50 (MEK1): 4 nM
IC50 (BRAF): 3 nM
IC50 (A549): 1 nM
IC50 (Calu-6): 7 nM
IC50 (NCI-H2122): 1 nM
microsomal CLint at 0.99 µM [1]: 53 µL/min/mg

NC(=O)c1cc(Cc2ccnc(NS(N)(=O)=O)c2F)c(F)c(F)c1Nc1ccc(I)cc1F [Compound B-10, 3,4-Difluoro-2-(2-fluoro-4-iodoanilino)-5-[[3-fluoro-2-(sulfamoylamino)pyridin-4-yl]methyl]benzamide]
IC50 (MEK1): 22 nM
IC50 (BRAF): 11 nM
IC50 (A549): 72 nM
IC50 (Calu-6): 33 nM
IC50 (NCI-H2122): 8 nM
microsomal CLint at 0.99 µM [1]: 3 µL/min/mg

NC(=O)c1cc(Cc2ccnc(NS(=O)(=O)NC3CC3)c2F)c(F)c(F)c1Nc1ccc(I)cc1Cl [Compound B-11, 2-(2-Chloro-4-iodoanilino)-5-[[2-(cyclopropylsulfamoylamino)-3-fluor opyridin-4-yl]methyl]-3,4-difluorobenzamide]
IC50 (MEK1): 19 nM
IC50 (BRAF): 3 nM
IC50 (A549): 18 nM
IC50 (Calu-6): 43 nM
IC50 (NCI-H2122): 16 nM
microsomal CLint at 0.99 µM [1]: 26 µL/min/mg

O=C(NC1CC1)c1cc(Cc2ccnc(NS(=O)(=O)NC3CC3)c2F)c(F)c(F)c1Nc1ccc(I)cc1Cl [Compound B-12, 2-(2-Chloro-4-iodoanilino)-N-cyclopropyl-5-[[2-(cyclopropylsulfamoylamino)-3-fluoropyridin-4-yl]methyl]-3,4-difluorobenzamide]
IC50 (MEK1): 61 nM
IC50 (BRAF): 8 nM
IC50 (A549): 14 nM
IC50 (Calu-6): 30 nM
IC50 (NCI-H2122): 8 nM
microsomal CLint at 0.99 µM [1]: 39 µL/min/mg

CC(C)(C)ONC(=O)c1cc(Cc2ccnc(NS(=O)(=O)NC3CC3)c2F)c(F)c(F)c1Nc1ccc(I)cc1Cl [Compound B-13, 2-(2-Chloro-4-iodoanilino)-5-[[2-(cyclopropylsulfamoylamino)-3-fluor opyridin-4-yl]methyl]-3,4-difluoro-N-[(2-methylpropan-2-yl)oxy]benzamide]
IC50 (MEK1): 13 nM
IC50 (BRAF): 10 nM
IC50 (A549): 26 nM
IC50 (Calu-6): 34 nM
IC50 (NCI-H2122): 14 nM
microsomal CLint at 0.99 µM [1]: 66 µL/min/mg

NC(=O)c1cc(Cc2ccnc(NS(N)(=O)=O)c2)c(F)c(F)c1Nc1ccc(I)cc1F [Compound C-1, 3,4-Difluoro-2-(2-fluoro-4-iodoanilino)-5-[[2-(sulfamoylamino)pyridin-4-yl]methyl]benzamide]
IC50 (MEK1): 72 nM
IC50 (BRAF): 4 nM
IC50 (A549): 7 nM
IC50 (Calu-6): 16 nM
IC50 (NCI-H2122): 4 nM
microsomal CLint at 0.99 µM [1]: 10 µL/min/mg

CNS(=O)(=O)Nc1cccc(Cc2cc(C(=O)NC3CC3)c(Nc3ccc(I)cc3F)c(F)c2F)c1 [Compound C-6, N-Cyclopropyl-3,4-difluoro-2-(2-fluoro-4-iodoanilino)-5-[[3-(methylsulfamoylamino)phenyl]methyl]benzamide]
IC50 (MEK1): 268 nM
IC50 (BRAF): 9 nM
IC50 (A549): 6 nM
IC50 (Calu-6): 31 nM
IC50 (NCI-H2122): 4 nM
microsomal CLint at 0.99 µM [1]: 74 µL/min/mg

CCS(=O)(=O)Nc1cccc(Cc2cc(C(N)=O)c(Nc3ccc(I)cc3F)c(F)c2F)c1F [Compound D-4, 5-[[3-(ethylsulfonylamino)-2-fluorophenyl]methyl]-3,4-difluoro-2-(2-fluoro-4-iodoanilino)benzamide]
IC50 (MEK1): 196 nM
IC50 (BRAF): 3 nM
IC50 (A549): 16 nM
IC50 (Calu-6): 67 nM
IC50 (NCI-H2122): 5 nM
microsomal CLint at 0.99 µM [1]: 9 µL/min/mg

COCCS(=O)(=O)Nc1cccc(Cc2cc(C(N)=O)c(Nc3ccc(I)cc3F)c(F)c2F)c1F [Compound D-5, 3,4-Difluoro-2-(2-fluoro-4-iodoanilino)-5-[[2-fluoro-3-(2-methoxyethylsulfonylamino)phenyl]methyl]benzamide]
IC50 (MEK1): 169 nM
IC50 (BRAF): 7 nM
IC50 (A549): 10 nM
IC50 (Calu-6): 71 nM
IC50 (NCI-H2122): 5 nM
microsomal CLint at 0.99 µM [1]: 28 µL/min/mg

CNS(=O)(=O)Nc1cccc(Cc2cc(C(=O)NC3CC3)c(Nc3ccc(I)cc3F)c(F)c2F)c1F [Compound D-6, N-Cyclopropyl-3,4-difluoro-2-(2-fluoro-4-iodoanilino)-5-[[2-fluoro-3-(methylsulfamoylamino)phenyl]methyl]benzamide]
IC50 (MEK1): 55 nM
IC50 (BRAF): 8 nM
IC50 (A549): 8 nM
IC50 (Calu-6): 24 nM
IC50 (NCI-H2122): 2 nM
microsomal CLint at 0.99 µM [1]: 34 µL/min/mg

NS(=O)(=O)Nc1cccc(Cc2cc(C(=O)NC3CC3)c(Nc3ccc(I)cc3F)c(F)c2F)c1F [Compound D-7, N-Cyclopropyl-3,4-difluoro-2-(2-fluoro-4-iodoanilino)-5-[[2-fluoro-3-(sulfamoylamino)phenyl]methyl]benzamide]
IC50 (MEK1): 282 nM
IC50 (BRAF): 4 nM
IC50 (A549): 3 nM
IC50 (Calu-6): 9 nM
IC50 (NCI-H2122): 2 nM
microsomal CLint at 0.99 µM [1]: 11 µL/min/mg

CCS(=O)(=O)Nc1cccc(Cc2cc(C(=O)NOC)c(Nc3ccc(I)cc3F)c(F)c2F)c1F [Compound E-1, 5-[[3-(ethylsulfonylamino)-2-fluorophenyl]methyl]-3,4-difluoro-2-(2-fluoro-4-iodoanilino)-N-methoxybenzamide]
IC50 (MEK1): 40 nM
IC50 (BRAF): 12 nM
IC50 (A549): 2 nM
IC50 (Calu-6): 6 nM
IC50 (NCI-H2122): 0.4 nM
microsomal CLint at 0.99 µM [1]: 17 µL/min/mg

CCS(=O)(=O)Nc1cccc(Cc2cc(C(=O)NOC(C)(C)C)c(Nc3ccc(I)cc3F)c(F)c2F)c1F [Compound E-2, 5-[[3-(Ethylsulfonylamino)-2-fluorophenyl]methyl]-3,4-difluoro-2-(2-fluoro-4-iodoanilino)-N-[(2-methylpropan-2-yl)oxy]benzamide]
IC50 (MEK1): 86 nM
IC50 (BRAF): 22 nM
IC50 (A549): 6 nM
IC50 (Calu-6): 19 nM
IC50 (NCI-H2122): 2 nM
microsomal CLint at 0.99 µM [1]: 42 µL/min/mg

COCC1(S(=O)(=O)Nc2cccc(Cc3cc(C(=O)NOC(C)(C)C)c(Nc4ccc(I)cc4F)c(F)c3F)c2F)CC1 [Compound E-4]
IC50 (MEK1): 131 nM
IC50 (BRAF): 11 nM
IC50 (A549): 6 nM
IC50 (Calu-6): 26 nM
IC50 (NCI-H2122): 5 nM
microsomal CLint at 0.99 µM [1]: 168 µL/min/mg

CONC(=O)c1cc(Cc2cccc(NS(=O)(=O)C3(C)CC3)c2F)c(F)c(F)c1Nc1ccc(I)cc1F [Compound E-5, 3,4-Difluoro-2-(2-fluoro-4-iodoanilino)-5-[[2-fluoro-3-[(1-methylcyclopropyl)sulfonylamino]phenyl]methyl]-N-methoxybenzamide]
IC50 (MEK1): 19 nM
IC50 (BRAF): 8 nM
IC50 (A549): 5 nM
IC50 (Calu-6): 17 nM
IC50 (NCI-H2122): 3 nM
microsomal CLint at 0.99 µM [1]: 78 µL/min/mg

CC(C)(C)ONC(=O)c1cc(Cc2cccc(NS(=O)(=O)C3(C)CC3)c2F)c(F)c(F)c1Nc1ccc(I)cc1F [Compound E-6, 3,4-Difluoro-2-(2-fluoro-4-iodoanilino)-5-[[2-fluoro-3-[(1-methylcyclopropyl)sulfonylamino]phenyl]methyl]-N-[(2-methylpropan-2-yl)oxy]be nzamide]
IC50 (MEK1): 34 nM
IC50 (BRAF): 17 nM
IC50 (A549): 8 nM
IC50 (Calu-6): 28 nM
IC50 (NCI-H2122): 6 nM
microsomal CLint at 0.99 µM [1]: 105 µL/min/mg

CNS(=O)(=O)Nc1cccc(Cc2cc(C(N)=O)c(Nc3ccc(I)cc3F)c(F)c2F)c1F [Compound E-7, 3,4-difluoro-2-(2-fluoro-4-iodoanilino)-5-[[2-fluoro-3-(methylsulfamoylamino)phenyl]methyl]benzamide]
IC50 (MEK1): 334 nM
IC50 (BRAF): 6 nM
IC50 (A549): 1 nM
IC50 (Calu-6): 8 nM
IC50 (NCI-H2122): 0.4 nM
microsomal CLint at 0.99 µM [1]: 5 µL/min/mg

CCS(=O)(=O)Nc1cccc(Cc2cc(C(=O)NOC)c(Nc3ccc(I)cc3Cl)c(F)c2F)c1F [Compound E-9, 2-(2-chloro-4-iodoanilino)-5-[[3-(ethylsulfonylamino)-2-fluorophenyl]methyl]-3,4-difluoro-N-methoxybenzamide]
IC50 (MEK1): 95 nM
IC50 (BRAF): 11 nM
IC50 (A549): 7 nM
IC50 (Calu-6): 57 nM
IC50 (NCI-H2122): 6 nM
microsomal CLint at 0.99 µM [1]: 13 µL/min/mg

CCS(=O)(=O)Nc1cccc(Cc2cc(C(=O)NOC(C)(C)C)c(Nc3ccc(I)cc3Cl)c(F)c2F)c1F [Compound E-10, 2-(2-Chloro-4-iodoanilino)-5-[[3-(ethylsulfonylamino)-2-fluorophenyl]methyl]-3.4-difluoro-N-[(2-methylpropan-2-yl)oxy]benzamide]
IC50 (MEK1): 84 nM
IC50 (BRAF): 23 nM
IC50 (A549): 4 nM
IC50 (Calu-6): 27 nM
IC50 (NCI-H2122): 3 nM
microsomal CLint at 0.99 µM [1]: 51 µL/min/mg

CCS(=O)(=O)Nc1cccc(Cc2cc(C(N)=O)c(Nc3ccc(I)cc3Cl)c(F)c2F)c1F [Compound E-11, 2-(2-Chloro-4-iodoanilino)-5-[[3-(ethylsulfonylamino)-2-fluorophenyl]methyl]-3,4-difluorobenzamide]
IC50 (MEK1): 454 nM
IC50 (BRAF): 5 nM
IC50 (A549): 6 nM
IC50 (Calu-6): 73 nM
IC50 (NCI-H2122): 6 nM
microsomal CLint at 0.99 µM [1]: 11 µL/min/mg

CC(C)(C)ONC(=O)c1cc(Cc2cccc(NS(=O)(=O)NC3CC3)c2F)c(F)c(F)c1Nc1ccc(I)cc1Cl [Compound E-12, 2-(2-Chloro-4-iodoanilino)-5-[[3-(cyclopropylsulfamoylamino)-2-fluor ophenyl]methyl]-3,4-difluoro-N-[(2-methylpropan-2-yl)oxy]benzamide]
IC50 (MEK1): 260 nM
IC50 (BRAF): 17 nM
IC50 (A549): 3 nM
IC50 (Calu-6): 8 nM
IC50 (NCI-H2122): 2 nM
microsomal CLint at 0.99 µM [1]: 160 µL/min/mg
